In patent publication US12529066B2, “Plants having increased tolerance to herbicides” (BASF AGRO B.V., priority 2012, dated 2026):

Legend:
[1] = system: Chlamydomonas reinhardtii; experiment: Selection of Chlamydomonas reinhardtii strains on solid medium containing herbicide; format: cell-based; conditions: solid medium containing 1×10^−7 M
[2] = system: Chlamydomonas reinhardtii; experiment: Dose-response curves of Chlamydomonas reinhardtii wild-type and mutagenized cells (strain 17); conditions: mutagenized cells (strain 17) versus wild-type cells

C#CCN1C(=O)C(F)(F)Oc2cc(F)c(-n3c(=O)n(C)c(=S)n(C)c3=O)cc21 [I.a.35]
growth of resistant mutagenized cells on solid medium ([1]; resistant cells (colonies 31 and 32)): form colonies
growth of susceptible mutagenized cells on solid medium ([1]; susceptible cells): do not grow
IC50 of strain 17 compared to Wild-type cells [2]: much lower IC50
